Measured values reported in patent publication US9856247B2, “4-methyl-dihydropyrimidines for the treatment and prophylaxis of Hepatitis B virus infection” (Hoffmann-La Roche Inc., priority 2012, dated 2018).

Tests used:
HBV DNA = assay: Anti-HBV activity in HepDE19 cells (HBV DNA dot-blot); format: cell-based, Hepatitis B virus (HBV); settings: Hepatitis B virus, 120 h; HepDE19 cells, five days after compound treatment, concentration that inhibited HBV DNA by 50%; read-out: HepDe19 EC50
Source text: Cells and culture conditions: HepDE19 (Haitao Guo et al, Journal of Virology, 81, November 2007, 12472-12484; Richeng Mao et al, Journal of Virology, 85, January 2011, 1048-1057) cells were derived from HepG2 (ATCC, American Type Culture Collection) cells through transfection with pTet-off plasmid (Clontech) that expresses the Tet-responsive transcriptional activator and pTREHBVDE plasmid in which HBV pgRNA expression is controlled by a CMV early promoter with a tetracycline-responsive element. The transfected cells were selected with G418 (also known as Genticin, purchased from Invitrogen). […] These cells were maintained in Dulbecco's modified Eagle's medium (DMEM)-F12 medium (Invitrogen) supplemented with 10% fetal bovine serum, 100 U/ml penicillin, and 100 μg/ml streptomycin, 0.5 mg/ml of G418 and 1 μg/ml tetracycline.
Anti-HBV activity and cytotoxicity: HepDE19 cells were seeded into 96-well plates (3×10^4 cells/well) with tetracycline-free medium and incubated overnight at 37° C. The test or control compounds were serially half-log diluted with medium and added into the plates (the final concentration of DMSO kept at 0.5% in each well). Five days after compound treatment, cells were washed with PBS and lysed with 50 mM Tris-1 mM EDTA-0.2% CA-630 (pH 8.0) at 37° C. for 20 min. After centrifugation to remove nuclei and other debris, the supernatant was transferred into a new plate and incubated with 2M NaOH/20×SSC (3M NaCl, 0.3M Sodium citrate, pH7.0) at rt for 30 min. Then the samples were transferred to nylon membrane and neutralized with 1M Tris (pH7.4)/2M NaCl. The presence of HBV DNA was detected by dot-blot with DIG-labeled HBV specific DNA probe and quantified by dot density. The compound concentrations that inhibited HBV DNA by 50% (EC50) were determined (See Table 1).

in vitro = settings: human
Procedure: The transfected cells were selected with G418 (also known as Genticin, purchased from Invitrogen). […] These cells were maintained in Dulbecco's modified Eagle's medium (DMEM)-F12 medium (Invitrogen) supplemented with 10% fetal bovine serum, 100 U/ml penicillin, and 100 μg/ml streptomycin, 0.5 mg/ml of G418 and 1 μg/ml tetracycline.
To determine if the anti-HBV effect of compound is due to cytotoxicity, HepDE 19 cells (5×10^3 cells/well) were seeded into 96-well plates and compounds were treated as described above. […] Four hours after incubation at 37° C., the absorbance at wavelengths of 450 nm and 630 nm (OD450 and OD630) was recorded by a plate reader.

## COC(=O)C1=C(CN(CC(=O)O)CC(F)(F)F)NC(c2nccs2)=N[C@@]1(C)c1ccc(F)cc1 [Example 44, (S)-6-{[carboxymethyl-(2,2,2-trifluoro-ethyl)-amino]-methyl}-4-(4-fluoro-phenyl)-4-methyl-2-thiazol-2-yl-1,4-dihydro-pyrimidine-5-carboxylic acid methyl ester]
HBV DNA
  EC50: 21.5 µM
In vitro
  CC50 at 5 days: ≥ 100 µM

## COC(=O)C1=C(CN2CC(F)(F)C[C@H]2C(=O)OCCN(C)C)NC(c2nccs2)=N[C@@]1(C)c1ccc(F)cc1 [Example 46, (S)-6-[(S)-2-(2-dimethylamino-ethoxycarbonyl)-4,4-difluoro-pyrrolidin-1-ylmethyl]-4-(4-fluoro-phenyl)-4-methyl-2-thiazol-2-yl-1,4-dihydro-pyrimidine-5-carboxylic acid methyl ester]
HBV DNA
  EC50: 2.13 µM
In vitro
  CC50 at 5 days: ≥ 100 µM

## COC(=O)C1=C(CN2CC(F)(F)CC2C(N)=O)NC(c2nccs2)=N[C@@]1(C)c1ccc(F)cc1 (stereo partly drawn) [Example 47, (S)-6-(2-carbamoyl-4,4-difluoro-pyrrolidin-1-ylmethyl)-4-(4-fluoro-phenyl)-4-methyl-2-thiazol-2-yl-1,4-dihydro-pyrimidine-5-carboxylic acid methyl ester]
HBV DNA
  EC50: 0.048 µM
In vitro
  CC50 at 5 days: ≥ 100 µM

## COC(=O)C1=C(CN2CC(F)(F)C[C@H]2C(N)=O)NC(c2nccs2)=N[C@@]1(C)c1ccc(F)cc1 [Example 48, (S)-6-((S)-2-carbamoyl-4,4-difluoro-pyrrolidin-1-ylmethyl)-4-(4-fluoro-phenyl)-4-methyl-2-thiazol-2-yl-1,4-dihydro-pyrimidine-5-carboxylic acid methyl ester]
HBV DNA
  EC50: 0.08 µM
In vitro
  CC50 at 5 days: ≥ 100 µM

## COC(=O)C1=C(CN2CC(F)(F)C[C@H]2C(=O)N(C)C)NC(c2nccs2)=N[C@@]1(C)c1ccc(F)cc1 [Example 49, (S)-6-((S)-2-dimethylcarbamoyl-4,4-difluoro-pyrrolidin-1-ylmethyl)-4-(4-fluoro-phenyl)-4-methyl-2-thiazol-2-yl-1,4-dihydro-pyrimidine-5-carboxylic acid methyl ester]
HBV DNA
  EC50: 0.29 µM
In vitro
  CC50 at 5 days: ≥ 100 µM

## CNC(=O)[C@@H]1CC(F)(F)CN1CC1=C(C(=O)OC)C(C)(c2ccc(F)cc2)N=C(c2nccs2)N1 (stereo partly drawn) [Example 50, 6-((S)-4,4-difluoro-2-methylcarbamoyl-pyrrolidin-1-ylmethyl)-4-(4-fluoro-phenyl)-4-methyl-2-thiazol-2-yl-1,4-dihydro-pyrimidine-5-carboxylic acid methyl ester]
HBV DNA
  EC50: 0.606 µM
In vitro
  CC50 at 5 days: ≥ 100 µM

## COC(=O)C1=C(CN2CC(F)(F)C[C@H]2C(=O)NS(C)(=O)=O)NC(c2nccs2)=N[C@@]1(C)c1ccc(F)cc1 [Example 51, (S)-6-((S)-4,4-difluoro-2-methanesulfonylaminocarbonyl-pyrrolidin-1-ylmethyl)-4-(4-fluoro-phenyl)-4-methyl-2-thiazol-2-yl-1,4-dihydro-pyrimidine-5-carboxylic acid methyl ester]
HBV DNA
  EC50: 18.2 µM
In vitro
  CC50 at 5 days: 90 µM

## COC(=O)C1=C(CN2CC(F)(F)C[C@H]2C(=O)Nc2nccs2)NC(c2nccs2)=N[C@@]1(C)c1ccc(F)cc1 [Example 52, (S)-6-[(S)-4,4-difluoro-2-(thiazol-2-ylcarbamoyl)-pyrrolidin-1-ylmethyl]-4-(4-fluoro-phenyl)-4-methyl-2-thiazol-2-yl-1,4-dihydro-pyrimidine-5-carboxylic acid methyl ester]
HBV DNA
  EC50: 5.43 µM
In vitro
  CC50 at 5 days: 4.07 µM

## COC(=O)C1=C(CN2CCOC[C@H]2CO)NC(c2nccs2)=NC1(C)c1ccc(F)cc1 (stereo partly drawn) [Example 53, 4-(4-fluoro-phenyl)-6-((R)-3-hydroxymethyl-morpholin-4-ylmethyl)-4-methyl-2-thiazol-2-yl-1,4-dihydro-pyrimidine-5-carboxylic acid methyl ester]
HBV DNA
  EC50: 1.75 µM
In vitro
  CC50 at 5 days: ≥ 100 µM

## COC(=O)C1=C(CN2CC(F)(F)C[C@H]2C(C)(C)O)NC(c2nccs2)=N[C@@]1(C)c1ccc(F)cc1 [Example 54, (S)-6-[(S)-4,4-difluoro-2-(1-hydroxy-1-methyl-ethyl)-pyrrolidin-1-ylmethyl]-4-(4-fluoro-phenyl)-4-methyl-2-thiazol-2-yl-1,4-dihydro-pyrimidine-5-carboxylic acid methyl ester]
HBV DNA
  EC50: 0.7 µM
In vitro
  CC50 at 5 days: 50.4 µM

## COC(=O)C1=C(CN2CC(F)(F)C[C@H]2CO)NC(c2nccs2)=N[C@@]1(C)c1ccc(F)cc1 [Example 55, (S)-6-((S)-4,4-difluoro-2-hydroxymethyl-pyrrolidin-1-ylmethyl)-4-(4-fluoro-phenyl)-4-methyl-2-thiazol-2-yl-1,4-dihydro-pyrimidine-5-carboxylic acid methyl ester]
HBV DNA
  EC50: 0.067 µM
In vitro
  CC50 at 5 days: ≥ 100 µM

## COC(=O)C1=C(CN2CC(F)(F)CC2CCCO)NC(c2nccs2)=N[C@@]1(C)c1ccc(F)cc1 (stereo partly drawn) [Example 56, (S)-6-[4,4-difluoro-2-(3-hydroxy-propyl)-pyrrolidin-1-ylmethyl]-4-(4-fluoro-phenyl)-4-methyl-2-thiazol-2-yl-1,4-dihydro-pyrimidine-5-carboxylic acid methyl ester]
HBV DNA
  EC50: 0.66 µM
In vitro
  CC50 at 5 days: 90 µM

## COC(=O)C1=C(CN2CC(F)(F)C[C@H]2c2nnc(C)o2)NC(c2nccs2)=N[C@@]1(C)c1ccc(F)cc1 [Example 57, (S)-6-[(S)-4,4-difluoro-2-(5-methyl-[1,3,4]oxadiazol-2-yl)-pyrrolidin-1-ylmethyl]-4-(4-fluoro-phenyl)-4-methyl-2-thiazol-2-yl-1,4-dihydro-pyrimidine-5-carboxylic acid methyl ester]
HBV DNA
  EC50: 1.56 µM
In vitro
  CC50 at 5 days: ≥ 100 µM

## COC(=O)C1=C(CN2CC(F)(F)C[C@H]2c2nnn[nH]2)NC(c2nccs2)=N[C@@]1(C)c1ccc(F)cc1 [Example 58, (S)-6-[(S)-4,4-difluoro-2-(1H-tetrazol-5-yl)-pyrrolidin-1-ylmethyl]-4-(4-fluoro-phenyl)-4-methyl-2-thiazol-2-yl-1,4-dihydro-pyrimidine-5-carboxylic acid methyl ester]
HBV DNA
  EC50: 1.02 µM
In vitro
  CC50 at 5 days: ≥ 100 µM

## COC(=O)C1=C(CN2CC(F)(F)C[C@H]2c2nc(C)no2)NC(c2nccs2)=N[C@@]1(C)c1ccc(F)cc1 [Example 59, (S)-6-[(S)-4,4-difluoro-2-(3-methyl-[1,2,4]oxadiazol-5-yl)-pyrrolidin-1-ylmethyl]-4-(4-fluoro-phenyl)-4-methyl-2-thiazol-2-yl-1,4-dihydro-pyrimidine-5-carboxylic acid methyl ester]
HBV DNA
  EC50: 1.24 µM
In vitro
  CC50 at 5 days: 65.3 µM
